According to patent US20210179680A1, “POLYPEPTIDE, DERIVATIVES THEREOF, AND APPLICATION THEREOF IN PREPARATION OF DRUGS HAVING RESISTANCE TO PULMONARY FIBROSIS” (priority 2016, published 2021):
Bridge positions count the residues as written; N and C are the ends. Square brackets hold non-standard residues; d marks the D form. Peptide text beside a SMILES is read from it. S5 = C=CCCC[C@](C)(N)C(=O)O

Assays:
[1] = target: T1, TRB3/MDM2 protein interaction (Homo sapiens, UniProt Q96RU7); assay: Co-immunoprecipitation: inhibition of binding of MDM2 to TRB3 in BEAS-2B cells; format: cell-based; settings: BEAS-2B cells with TRB3 expression plasmid, 1 mg/mL polypeptide, 12 hours, co-IP with MDM2 antibody
T1 construct: host or cells: BEAS-2B
T1 sequence (Q96RU7 1-358): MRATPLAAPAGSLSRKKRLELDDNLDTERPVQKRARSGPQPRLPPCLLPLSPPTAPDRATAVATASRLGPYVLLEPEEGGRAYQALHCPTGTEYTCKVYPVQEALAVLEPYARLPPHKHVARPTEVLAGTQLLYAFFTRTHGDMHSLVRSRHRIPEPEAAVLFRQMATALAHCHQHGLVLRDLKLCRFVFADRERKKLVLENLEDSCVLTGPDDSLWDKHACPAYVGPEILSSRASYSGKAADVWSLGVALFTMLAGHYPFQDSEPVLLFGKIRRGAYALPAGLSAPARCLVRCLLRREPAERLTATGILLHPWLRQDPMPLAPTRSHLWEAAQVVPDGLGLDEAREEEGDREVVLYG
Procedure: 1. Human lung epithelial BEAS-2B cells (purchased from Institute of Basic Medical Sciences, Chinese Academy of Medical Sciences) were seeded in a 90 mm^2 culture dish. After the cells were adhered to the wall of culture dish, the TRB3 expression plasmid were transferred to the cells according to the method described in Example 5. After 24 hours, 1 mg/mL of the polypeptides MR2, S1, S2, S3, S4, S5, S6, S7, S8, S9, S10 or S11 prepared in Example 1 were added respectively, and the cells were incubated for 12 hours in a 37° C. incubator and then harvested.
2. Co-immunoprecipitation with MDM2 antibody was performed according to the method described in Example 3, followed by detection using TRB3 antibody.

TRB3 protein = target: T2, TRB3 protein (Homo sapiens, UniProt Q96RU7); assay: Surface plasmon resonance (Biacore T200) binding of polypeptides to TRB3 protein; settings: SPR, FIG. 4-1, 4-2 and Table 1
T2 construct: purchased RD
T2 sequence (Q96RU7 1-358): T1 sequence (Q96RU7 1-358)
Procedure: The surface plasmon resonance experiment was carried out in a surface plasmon resonator Biacore T200, and the procedure was carried out in accordance with the instructions of the plasma resonator Biacore T200. Specific steps are as follows:
1. Purified TRB3 protein (purchased from RD) was coupled to a CMS chip (purchased from GE) by amidogen, and the unbound protein was eluted at a flow rate of 10 μL/min. The surface of the chip was equilibrated for 2 hours. Among them, the specific steps of amidogen coupling, elution and equilibration refer to the relevant instruction of GE's CMS chip.
2. 250 μL of the S1-S11 and MR2 polypeptide fragments prepared in Example 1 with different concentrations (800, 400, 200, 50, 12.5, 6.25, and 3.125 nM) were automatically injected, and the entire surface plasmon resonance experiment was carried out at 25° C. The buffer used was HBS-EP buffer [0.01 M HEPES, 0.15 M NaCl, 3 mM EDTA and 0.005% (w/w) surfactant TWEEN20]. Biacore T200's built-in analysis software was used to simulate the binding curves of different concentrations of peptides to TRB3.

[2] = tested on: mice with bleomycin-induced pulmonary fibrosis; assay: Survival rate of mice with bleomycin-induced pulmonary fibrosis; format: in vivo, C57BL/6 mice; settings: Table 3 groups: 2 mg/kg i.p., 10th to 28th day after modeling, twice a week
Procedure: Male C57BL/6 mice were fasted overnight, then anesthetized with 45 mg/kg sodium pentobarbital by injection intraperitoneally (i.p.), and intratracheally injected with bleomycin at a dose of 3 U/kg. The specific operation steps are as follows: cut the neck skin of the mouse with as little trauma as possible, expose the trachea with the assistance of elbow ophthalmic forceps, puncture the trachea and inject about 50 μL of bleomycin into the trachea with a microsyringe, rotate the mouse quickly and stand it upright for 5 minutes in order to make bleomycin evenly enter the left and right lobe, thereby constructing an animal model. The whole operation was performed at a surgical table at about […]. Mice in the sham operation group were intratracheally injected with an equal amount of physiological saline for injection.
The animal model with pulmonary fibrosis was prepared according to the method described in Example 2. The peptide therapy was started from the 10th day after modeling (the treatment groups are shown in Table 3), and the time was calculated from the 10th day after modeling to count the mortality rate. The death situation of each group of experimental animals was counted and calculated daily. […] The survival rate is the percentage of the number of mice that survived accounting for the number of mice in the whole group. Results are shown in FIG. 6-1, FIG. 6-2 and Table 4. […] In FIG. 6-1 and FIG. 6-2, “##” represents that P value is less than 0.01 when the survival rate of administration group was compared with that of the sham operation group; “*” represents that P value is less than 0.05 when the survival rate of administration group was compared with that of the bleomycin group; “**” represents that P value is less than 0.01 when the survival rate of administration group was compared with that of bleomycin group; and “i.p.” refers to intraperitoneal injection.
The animal model of pulmonary fibrosis was prepared according to the method described in Example 2. The polypeptide treatment was started from the 10th day after modeling (the treatment groups are shown in Table 9), and the time was calculated from the 10th day after modeling to count the mortality rate. The mortality rate of each group of experimental animals was recorded and calculated daily. If none of the animals in a group died, the survival rate of the group is 100%. If all the animals in a group died, the survival rate is 0%. […] In FIG. 12, “##” represents that P value is less than 0.01 when the survival rate of the administration groups were compared with that of the sham operation group; “*” represents that P value is less than 0.05 and “**” represents that P value is less than 0.01 when the survival rate of the administration groups were compared with bleomycin group.

SMILES: CSCC[C@H](NC(=O)[C@H](CC(C)C)NC(=O)[C@@H](N)Cc1c[nH]cn1)C(=O)N[C@@H](C)C(=O)N[C@@H](CS)C(=O)N[C@@H](Cc1ccccc1)C(=O)N[C@H](C(=O)N[C@@H](CS)C(=O)N[C@@H](C)C(=O)N[C@@H](CCCCN)C(=O)N[C@@]1(C)CCCC=CCCC[C@@](C)(C(=O)O)NC(=O)[C@H](CCCCN)NC(=O)[C@H](CCCCN)NC(=O)[C@H](CC(C)C)NC1=O)[C@@H](C)O [S11, His-Leu-Met-Ala-Cys-Phe-Thr-Cys-Ala-Lys-S5-Leu-Lys-Lys-S5] (H-HLMACFTCAK[S5]LKK[S5]-OH; staple 11-15; N-terminus and C-terminus assumed)
- interaction of TRB3 and MDM2 protein (FIG. 5, in words) [1]: interrupted
- interaction with the TRB3 protein (in words) (TRB3 protein): interacted with the TRB3 protein
- Survival rate (%) 7 days ([2]; 7 days): 100%
- Survival rate (%) 14 days ([2]; 14 days): 93.33%
- Survival rate (%) 21 days ([2]; 21 days): 86.67%
- Survival rate (%) 28 days ([2]; 28 days): 86.67%
